Earlier results in article PMC5989765, “The safety, tolerability, and pharmacokinetic profile of GSK2838232, a novel 2nd generation HIV maturation inhibitor, as assessed in healthy subjects” (Pharmacology Research & Perspectives, 2018).

How the values were obtained:
HIV [1] = conditions: cited from earlier work
HIV [2] = tested on: HIV; design: method as in PMID 20154583; conditions: cited from earlier work

SMILES: C=C(C)[C@@H]1CC[C@]2(NCCN3CCS(=O)(=O)CC3)CC[C@]3(C)[C@H](CC[C@@H]4[C@@]5(C)CC=C(c6ccc(C(=O)O)cc6)C(C)(C)[C@@H]5CC[C@]43C)[C@@H]12 [BMS‐955176]
- anti‐HIV potency compared to BVM (HIV [1]; Phase IIa clinical studies): greater and dose‐related anti‐HIV potency
- safety (HIV [1]; Phase IIa clinical studies): no obvious safety concerns

SMILES: C=C(C)[C@@H]1CC[C@]2(C(=O)O)CC[C@]3(C)[C@H](CC[C@@H]4[C@@]5(C)CC[C@H](OC(=O)CC(C)(C)C(=O)O)C(C)(C)[C@@H]5CC[C@]43C)[C@@H]12 [BVM, Bevirimat]
- efficacy against naturally occurring polymorphisms in the HIV gag region (CA & Sp1) (HIV [1]): lack of efficacy
- potency in the presence of human serum (HIV [2]): significant decrease in potency
